From patent US20230219957A1, “SMALL MOLECULE CB002-ANALOGES RESTORE THE P53 PATHWAY AND TARGET S-PHASE CHECKPOINT” (Brown University, priority 2020, published 2023)

Tests used:
SW480 colon cancer cells [1] = test: Propidium iodide / BrdU cell cycle analysis of synchronized cells; assay type: cell-based, human; details: all time points, versus DMSO vehicle control
Experimental: (§1) Cell synchronization. Synchronized cells were synchronized by double thymidine block. Cells were treated with […] thymidine for sixteen hours. The drug was removed and replaced by complete growth media for eight hours. Cells were treated for the second time with […] thymidine for sixteen hours. At this point, cells were treated and harvested.
Propidium iodide and BrdU flow cytometry assay. Cells were seeded at a density of 5×10^5 in a 6-well plate and treated for forty-eight to seventy-two hours. After treatment, floating cells were collected, and adherent cells were trypsinized, pelleted, washed with phosphate-buffered saline, and fixed in 70% ethanol overnight. For propidium iodide (PI) based Sub-G1 apoptosis analysis, cells were spun down after fixation and resuspended in phosphate-citric acid buffer (0.2M Na2HPO4+0.1M Citric Acid, pH 7.8) at room temperature for five minutes. The cell pellet was resuspended for staining with 50 μg/mL PI and 250 μg/mL ribonuclease (RNase A). For BrdU analysis, after cell fixation, cells were spun down and resuspended in one mL of 2N HCL with 0.5% Triton X-100 for thirty minutes at room temperature. Cells were pelleted, washed with phosphate-buffered saline, and resuspended in 20 μL BrdU antibody (BD Biosciences, cat no. 347580) diluted in 0.5% Tween 20/PBS/5% bovine serum albumin for thirty minutes at room temperature. Cells were then spun down and resuspended in 140 μg/mL goat-anti mouse Alexa Fluor 488 (#A-11008, Thermo Fisher Scientific, Waltham, Mass., USA) in 0.5% Tween 20 in phosphate-buffered saline/5% bovine serum albumin for thirty minutes at room temperature. Cells were then spun down and resuspended in 5 μg/mL PI: 250 μg/mL RNase A solution. Samples were analyzed on an Epics Elite Epics flow cytometer (Coulter-Beckman).
BrdU analysis gating. Cell aggregates were gated out in the PI Peak vs DNA PI histogram. BrdU lower limit intensity was set on the upper limit of the negative control. The no BrdU antibody assays and no goat-anti mouse Alexa Fluor 488 antibody assays were the negative controls. […] Gating was held constant throughout the samples within a given assay.

SW480 colon cancer cells [2] = test: Immunoblot of cell cycle markers; assay type: cell-based, human; details: synchronized SW480
Experimental: Immunoblotting (additional method). After treatment, floating cells were collected, and adherent cells were trypsinized, washed with phosphate-buffered saline, and lysed with RIPA buffer (Sigma-Aldrich, St. Louis, Mo., USA) for thirty minutes to one hour at 4° C. Protein lysates were pelleted. The supernatant was collected. Total protein per sample was determined using a Pierce™ BCA Protein Assay Kit (Thermo Fisher Scientific, Waltham, Mass., USA). Proteins were denatured using 1× NuPAGE® LDS sample buffer (Thermo Fisher Scientific, Waltham, Mass., USA) and reduced with 2-mercaptoethanol (Sigma-Aldrich, St. Louis, Mo., USA). Protein lysates were boiled for fifteen min at 95° C. After protein normalization, samples were loaded into NuPAGE™ Novex™ 4-12% Bis-Tris Protein Gels (Thermo Fisher Scientific, Waltham, Mass., USA). Gel electrophoresis was performed with NuPAGE™ MES SDS Running Buffer. Proteins were transferred onto an Immobilon-P membrane (PVDF, EMD Millipore, Taunton, Mass., USA) using a Bio-Rad system with a 10% Tris-Glycine and 10% methanol transfer buffer diluted in distilled and deionized water. Membranes were blocked with 10% milk in Tris-buffered saline with Tween 20 (TBST) solution. The membranes were incubated overnight with the primary antibody, washed with TBST, and incubated with secondary antibody for one hour. Primary antibody incubations were performed in 5% milk or 5% bovine serum albumin in TBST solution as per manufacturer instructions. Signal was detected using a chemiluminescent detection kit, followed by autoradiography. The following antibodies were used: p53 (1:1000, #sc-126, Santa Cruz Biotechnology, Santa Cruz, Calif., USA), p73 (1:1000, #A300-126A, Bethyl Laboratories), Noxa (1:250, #OP180, EMD Millipore, Taunton, Mass., USA), DR5 (#3696), cleaved PARP (#9546), phospho-RPA32/RPA2 (#54762), p-cdc2 (#9111), p-cdc25c, pH3 (#3377) (1:1,000; Cell Signaling Technology, Inc., Danvers, Mass. USA) and β-actin (1:10000, A5441, Sigma).
as §1

Row | Structure (SMILES) | S-phase population (SW480 colon cancer cells [1]) | pcdc2(Tyr15) and pcdc25c(Ser16) expression (SW480 colon cancer cells [2]; combination with etoposide) | pcdc2(Tyr15) and pcdc25c(Ser16) protein expression (SW480 colon cancer cells [2]; single agent)
1 | Cn1c(=O)c2c(ncn2C)n(C)c1=O [caffeine, reference compound] | comparable to the dimethyl sulfoxide vehicle control | decreased expression | 
2 | COc1cc([C@@H]2c3cc4c(cc3[C@@H](O[C@@H]3O[C@@H]5CO[C@@H](C)O[C@H]5[C@H](O)[C@H]3O)[C@H]3COC(=O)[C@H]23)OCO4)cc(OC)c1O [etoposide, reference compound] |  |  | enhances protein expression
